# Test results as given in patent US10060933B2, “Methods for diagnosis and treatment of amyotrophic lateral sclerosis based on an increased level of interaction between TDP-43 polypeptide and NF-KB P65 polypeptide” (UNIVERSITE LAVAL, priority 2011, dated 2018).
# Tests used:
# NF-κB = assay: 4κB^wt-luc NF-κB reporter gene assay in BV-2 cells; format: cell-based, mouse
# Description: (§1) If correct that TDP-43 acts as a co-activator of p65, then reducing the levels of TDP-43 should attenuate p65 activation. To reduce the expression levels of TDP-43, microglial BV-2 cells were transfected with either TDP-43 siRNA or scrambled siRNA together with 4κB^wt-luc vectors. 72 hrs after transfection some of the cells were either stimulated with LPS (100 ng/ml) or mock stimulated for 12 hrs. […] To examine the effect of reducing TDP-43 levels on NF-κB activation, BV-2 cells were transfected with pCMV-p65 and 4κB^wt-luc vectors. TDP-43 siRNA decreased activation of NF-κB reporter gene in transfected cells. The decrease in NF-κB activation was about 3-fold for 5 ng pCMV-p65 (n=4, p<0.01) and about 2.5-fold for 10 and 20 ng pCMV-p65 (n=4, p<0.05) and 2-fold for 50 ng pCMV-p65 (n=4, p<0.05) as compared to scrambled siRNA transfected cells (FIG. 5B). To examine the physiological significance of TDP-43 inhibition by siRNA, we transfected BV-2 cells with ICAM1-luc vector together with TDP-43 siRNA or scrambled siRNA. 72 hrs after transfection, cells were stimulated with varying concentrations of TNF-α. […] We also tested the effect of TDP-43 siRNA transfected in bone-marrow derived macrophages (BMMs) from normal mice. We compared the level of innate immunity activation when stimulated with LPS.
# (§2) BV2 cells were harvested in 120 μl of cell lysis buffer (Promega, Madison, Wis., USA), and an ensuing 1-min centrifugation step (20,000×g) yielded a luciferase-containing supernatant. In both cases aliquots of 20-μl supernatant were tested for luciferase activity (luciferase assay kit, Promega) and for β-galactosidase activity (β-galactosidase assay kit, Promega) to adjust for transfection efficiency.
# (§3) To selectively prevent TDP-43 expression, we employed the RNA interference technology. A double-stranded RNA (siRNA) was employed to degrade TDP-43 mRNA and thus to limit the available protein. The siRNA experiments were designed and conducted as described earlier^26. The siRNAs directed against the murine TDP-43 mRNA (NM_145556.4) consisted of sequences with symmetrical 3′-UU overhangs using siRNA Target Finder (Ambion, Tex., USA). […] To account for the non-sequence-specific effects, scrambled siRNA was used. The sequence of scrambled siRNA is as follows: 5′-[…]-3′ (SEQ ID NO:19) and 5′-[…]-3′ (SEQ ID NO:20). TDP-43 siRNAs or the scrambled siRNAs were suspended in diethyl […] water to yield desired concentration. For in vitro transfection, cells were plated in 24-well plates and transfected with 0.6 μmol/L siRNAs with 2 μL Lipofectamine 2000 (Invitrogen). The cells were then kept for 72 h in OptiMEM medium (Gibco).
# [1] = system: bone-marrow derived macrophages (BMMs); assay: Real-time RT-PCR of innate immunity genes in LPS stimulated bone-marrow derived macrophages; format: cell-based, mouse; conditions: vs scrambled siRNA
# Description: as §1
# Real-time RT-PCR was performed with a LightCycler 480 (Roche Diagnostics) sequence detection system using LightCycler SYBR Green I at the Quebec genomics Centre, Quebec. Total RNA was extracted from cell culture experiments using Trizol reagent (Invitrogen). Total RNA was treated with DNase (Qiagen, Valencia, Calif., USA) to get rid of genomic DNA contaminations. Total RNA was the quantified using Nanodrop and its purity verified by Bioanalyzer 2100 (Agilent Technologies, Santa Clara, Calif., USA). Gene-specific primers were constructed using the GeneTools (Biotools Inc.) software. 3 genes Atp5, Hprt1 and GAPDH were used as internal control genes. The primers used for the analysis of genes are given in S-Table 2 (Swamp et al. J Exp Med 2011, 208, 2429-2447).
# as §3
# [2] = system: ICAM-1 luciferase activity; assay: ICAM1-luc luciferase assay in TNF-α stimulated BV-2 cells; format: cell-based, mouse; conditions: vs scrambled siRNA
# Description: as §1, §2
# To selectively prevent TDP-43 expression, we employed the RNA interference technology. A double-stranded RNA (siRNA) was employed to degrade TDP-43 mRNA and thus to limit the available protein. The siRNA experiments were designed and conducted as described earlier^26. […]
# endogenous mouse TDP-43 = assay: Western blot of TDP-43 after siRNA transfection of BV-2 cells; format: cell-based; conditions: vs scrambled siRNA
# Description: as §1
# To selectively prevent TDP-43 expression, we employed the RNA interference technology. […]
substance,measurement,setting,value
"TDP-43 siRNA: double-stranded siRNA against murine TDP-43 mRNA: 5′-AGGAAUCAGCGUGCAUAUAUU-3′ (SEQ ID NO:17), 5′-UAUAUGCACGCUGAUUCCUUU-3′ (SEQ ID NO:18) (listed as RNA, chemistry not given here)",decrease in NF-κB activation (4κB^wt-luc reporter),"NF-κB; 5 ng pCMV-p65, vs scrambled siRNA",about 3 fold
same,decrease in NF-κB activation (4κB^wt-luc reporter),"NF-κB; 10 ng pCMV-p65, vs scrambled siRNA",about 2.5 fold
same,decrease in NF-κB activation (4κB^wt-luc reporter),"NF-κB; 20 ng pCMV-p65, vs scrambled siRNA",about 2.5 fold
same,decrease in NF-κB activation (4κB^wt-luc reporter),"NF-κB; 50 ng pCMV-p65, vs scrambled siRNA",2 fold
same,reduced levels of Cox-2 mRNA,[1],2 fold
same,reduced levels of IL-1β mRNA,[1],2 fold
same,reduced levels of IL-6 mRNA,[1],2.5 fold
same,reduced levels of IP-10 mRNA,[1],2 fold
same,reduced levels of TLR2 mRNA,[1],1.5 fold
same,reduced levels of TNF-α mRNA,[1],3 fold
same,reduced levels of p65 (RELA) mRNA,[1],3 fold
same,decrease in ICAM-1 luciferase activity,[2]; 0.5 ng/ml TNF-α,2 fold
same,decrease in ICAM-1 luciferase activity,[2]; 1.0 ng/ml TNF-α,2.5 fold
same,decrease in ICAM-1 luciferase activity,[2]; 1.5 ng/ml TNF-α,2 fold
same,endogenous mouse TDP-43 levels (western blot),endogenous mouse TDP-43,reduced the endogenous mouse TDP-43 levels significantly
